Conditions: Liquid, Bellows volumetry

O [water]
Conditions	specific volume [m3/kg]
253.56 K, 298200 kPa	0.0008917
253.56 K, 325300 kPa	0.0008857
253.56 K, 349800 kPa	0.0008804
253.58 K, 223600 kPa	0.0009109
253.58 K, 223700 kPa	0.000911
253.58 K, 273300 kPa	0.0008978
253.58 K, 273600 kPa	0.0008977
253.58 K, 323500 kPa	0.000886
253.6 K, 249400 kPa	0.0009039
253.6 K, 298400 kPa	0.0008918
253.61 K, 248900 kPa	0.0009041
253.63 K, 349100 kPa	0.0008803
253.64 K, 223700 kPa	0.000911
253.64 K, 248300 kPa	0.0009041
253.65 K, 299600 kPa	0.000891
253.67 K, 349800 kPa	0.00088
253.68 K, 273300 kPa	0.0008975
253.69 K, 325300 kPa	0.0008852
253.83 K, 323300 kPa	0.0008861
253.83 K, 349500 kPa	0.0008803
253.86 K, 273400 kPa	0.0008977
253.86 K, 298200 kPa	0.0008918
253.87 K, 248600 kPa	0.0009042
253.9 K, 223600 kPa	0.000911
258.37 K, 198400 kPa	0.00092
258.37 K, 248400 kPa	0.0009059
258.38 K, 274900 kPa	0.0008992
258.4 K, 174000 kPa	0.0009274
258.41 K, 223300 kPa	0.0009127
258.45 K, 299600 kPa	0.0008933
258.46 K, 348900 kPa	0.0008821
258.52 K, 323300 kPa	0.0008877
258.52 K, 324100 kPa	0.0008879
258.53 K, 275300 kPa	0.0008991
258.54 K, 249300 kPa	0.0009057
258.54 K, 298500 kPa	0.0008935
258.55 K, 225000 kPa	0.0009123
258.58 K, 174100 kPa	0.0009275
258.58 K, 349500 kPa	0.0008815
258.59 K, 199300 kPa	0.0009197
258.59 K, 223500 kPa	0.0009124
258.6 K, 198200 kPa	0.0009199
258.6 K, 248400 kPa	0.0009053
258.6 K, 273300 kPa	0.0008992
258.6 K, 323400 kPa	0.0008873
258.6 K, 348800 kPa	0.0008828
258.61 K, 198500 kPa	0.0009196
258.61 K, 223400 kPa	0.0009121
258.61 K, 299200 kPa	0.0008928
258.64 K, 223300 kPa	0.0009126
258.64 K, 248500 kPa	0.0009056
258.65 K, 248300 kPa	0.0009047
258.65 K, 274500 kPa	0.0008977
258.65 K, 299500 kPa	0.0008914
258.66 K, 198400 kPa	0.0009199
258.67 K, 174000 kPa	0.0009274
258.68 K, 173500 kPa	0.0009277
258.68 K, 223300 kPa	0.0009118
258.7 K, 174400 kPa	0.0009274
258.75 K, 199500 kPa	0.000919
258.76 K, 173800 kPa	0.0009274
263.51 K, 299100 kPa	0.0008953
263.52 K, 350000 kPa	0.0008839
263.58 K, 298900 kPa	0.0008957
263.6 K, 249800 kPa	0.0009078
263.61 K, 248800 kPa	0.0009077
263.62 K, 149500 kPa	0.0009371
263.64 K, 198700 kPa	0.0009216
263.64 K, 248800 kPa	0.0009078
263.64 K, 298000 kPa	0.0008957
263.64 K, 349900 kPa	0.0008842
263.65 K, 198400 kPa	0.0009219
263.69 K, 149400 kPa	0.0009369
263.69 K, 198600 kPa	0.0009216
263.69 K, 349100 kPa	0.0008847
263.75 K, 149200 kPa	0.000937
268.42 K, 99500 kPa	0.0009558
268.47 K, 149200 kPa	0.0009384
268.47 K, 248700 kPa	0.0009095
268.47 K, 300200 kPa	0.000897
268.47 K, 348900 kPa	0.0008867
268.48 K, 199300 kPa	0.0009231
268.48 K, 298400 kPa	0.0008977
268.48 K, 349100 kPa	0.0008861
268.51 K, 149700 kPa	0.0009382
268.51 K, 249100 kPa	0.0009096
268.52 K, 149700 kPa	0.0009382
268.52 K, 198400 kPa	0.0009234
268.52 K, 249000 kPa	0.0009097
268.53 K, 198800 kPa	0.0009234
268.55 K, 99400 kPa	0.0009559
268.55 K, 298900 kPa	0.0008975
268.58 K, 99800 kPa	0.0009557
268.6 K, 348900 kPa	0.0008866
273.32 K, 69100 kPa	0.0009686
273.38 K, 298800 kPa	0.0008991
273.4 K, 349400 kPa	0.0008876
273.44 K, 149100 kPa	0.0009398
273.46 K, 99300 kPa	0.0009569
273.48 K, 69100 kPa	0.0009688
273.51 K, 199000 kPa	0.0009249
273.52 K, 69100 kPa	0.0009682
273.52 K, 149000 kPa	0.0009392
273.52 K, 249000 kPa	0.0009109
273.53 K, 99100 kPa	0.0009564
273.55 K, 198900 kPa	0.0009242
273.56 K, 98600 kPa	0.0009574
273.57 K, 149100 kPa	0.00094
273.57 K, 249100 kPa	0.0009117
273.63 K, 249300 kPa	0.000912
273.65 K, 298900 kPa	0.0008999
273.67 K, 199000 kPa	0.0009252
273.68 K, 348800 kPa	0.0008889
273.74 K, 298900 kPa	0.0009003
273.82 K, 350400 kPa	0.0008893
283.33 K, 199000 kPa	0.000928
283.36 K, 69000 kPa	0.0009704
283.39 K, 298700 kPa	0.0009035
283.43 K, 249000 kPa	0.000915
283.43 K, 349100 kPa	0.0008928
283.47 K, 199000 kPa	0.0009281
283.48 K, 149100 kPa	0.0009425
283.49 K, 149300 kPa	0.0009423
283.5 K, 69200 kPa	0.0009702
283.5 K, 248900 kPa	0.0009152
283.51 K, 98900 kPa	0.0009592
283.51 K, 99000 kPa	0.0009591
283.52 K, 148800 kPa	0.0009426
283.53 K, 198900 kPa	0.000928
283.54 K, 69000 kPa	0.0009703
283.54 K, 249100 kPa	0.0009148
283.56 K, 299300 kPa	0.0009032
283.6 K, 299000 kPa	0.0009038
283.62 K, 349300 kPa	0.0008926
283.7 K, 99000 kPa	0.0009592
283.72 K, 348000 kPa	0.0008941
293.2 K, 249000 kPa	0.0009188
293.22 K, 299000 kPa	0.0009073
293.23 K, 149200 kPa	0.0009458
293.25 K, 199000 kPa	0.0009316
293.28 K, 99300 kPa	0.0009619
293.31 K, 349200 kPa	0.000897
293.34 K, 349300 kPa	0.0008968
293.35 K, 69300 kPa	0.0009728
293.38 K, 299400 kPa	0.0009073
293.39 K, 199400 kPa	0.0009315
293.39 K, 249000 kPa	0.0009189
293.4 K, 99100 kPa	0.000962
293.41 K, 149100 kPa	0.0009458
293.42 K, 68900 kPa	0.0009729
293.46 K, 199100 kPa	0.0009322
293.47 K, 99200 kPa	0.0009625
293.49 K, 148800 kPa	0.0009465
293.5 K, 100 kPa	0.001002
293.52 K, 248900 kPa	0.0009196
293.53 K, 100 kPa	0.001002
293.53 K, 349200 kPa	0.0008974
293.54 K, 299000 kPa	0.000908
293.55 K, 100 kPa	0.001002
293.6 K, 69200 kPa	0.0009732
303.35 K, 98500 kPa	0.0009655
303.37 K, 69200 kPa	0.0009758
303.4 K, 98900 kPa	0.0009651
303.4 K, 148900 kPa	0.000949
303.41 K, 198900 kPa	0.0009347
303.42 K, 68900 kPa	0.0009761
303.42 K, 69800 kPa	0.0009757
303.43 K, 248900 kPa	0.000922
303.48 K, 99200 kPa	0.0009653
303.48 K, 149000 kPa	0.0009492
303.49 K, 299100 kPa	0.0009104
303.51 K, 149100 kPa	0.0009494
303.52 K, 349300 kPa	0.0008999
303.55 K, 299100 kPa	0.000911
303.56 K, 199000 kPa	0.000935
303.57 K, 198800 kPa	0.0009353
303.57 K, 248800 kPa	0.0009226
303.57 K, 249300 kPa	0.0009222
303.61 K, 299200 kPa	0.0009108
303.63 K, 349200 kPa	0.0009004
303.72 K, 349100 kPa	0.0009003
313.38 K, 149300 kPa	0.0009528
313.38 K, 349300 kPa	0.0009051
313.39 K, 69100 kPa	0.0009801
313.39 K, 98800 kPa	0.000969
313.39 K, 148800 kPa	0.0009534
313.4 K, 69100 kPa	0.0009799
313.4 K, 98600 kPa	0.0009695
313.4 K, 199200 kPa	0.0009386
313.41 K, 99000 kPa	0.0009696
313.42 K, 149000 kPa	0.0009538
313.42 K, 198900 kPa	0.0009393
313.43 K, 69000 kPa	0.0009796
313.44 K, 249300 kPa	0.0009265
313.44 K, 299600 kPa	0.0009155
313.44 K, 348900 kPa	0.000904
313.45 K, 248900 kPa	0.0009271
313.46 K, 199100 kPa	0.0009397
313.46 K, 249200 kPa	0.0009259
313.46 K, 299400 kPa	0.0009151
313.46 K, 349500 kPa	0.0009046
313.48 K, 299700 kPa	0.0009144
323.04 K, 248700 kPa	0.0009318
323.09 K, 198800 kPa	0.0009435
323.13 K, 299200 kPa	0.0009196
323.17 K, 249000 kPa	0.0009307
323.17 K, 349400 kPa	0.0009091
323.19 K, 299100 kPa	0.0009191
323.21 K, 349000 kPa	0.0009095
323.25 K, 248900 kPa	0.0009312
323.26 K, 298400 kPa	0.0009203
323.28 K, 199000 kPa	0.0009438
323.3 K, 149300 kPa	0.0009578
323.31 K, 99100 kPa	0.0009737
323.33 K, 69200 kPa	0.0009842
323.34 K, 198300 kPa	0.0009446
323.34 K, 349300 kPa	0.0009085
323.35 K, 68300 kPa	0.0009846
323.35 K, 149000 kPa	0.0009578
323.37 K, 99600 kPa	0.0009736
323.41 K, 149200 kPa	0.0009584
323.43 K, 99200 kPa	0.0009742
323.46 K, 68800 kPa	0.0009848

From the NIST ThermoML archive (doi:10.1021/je100083w)
